One assay concerns the target T1, ALK5 (Homo sapiens, UniProt P36897).
T1 sequence (P36897 34-503): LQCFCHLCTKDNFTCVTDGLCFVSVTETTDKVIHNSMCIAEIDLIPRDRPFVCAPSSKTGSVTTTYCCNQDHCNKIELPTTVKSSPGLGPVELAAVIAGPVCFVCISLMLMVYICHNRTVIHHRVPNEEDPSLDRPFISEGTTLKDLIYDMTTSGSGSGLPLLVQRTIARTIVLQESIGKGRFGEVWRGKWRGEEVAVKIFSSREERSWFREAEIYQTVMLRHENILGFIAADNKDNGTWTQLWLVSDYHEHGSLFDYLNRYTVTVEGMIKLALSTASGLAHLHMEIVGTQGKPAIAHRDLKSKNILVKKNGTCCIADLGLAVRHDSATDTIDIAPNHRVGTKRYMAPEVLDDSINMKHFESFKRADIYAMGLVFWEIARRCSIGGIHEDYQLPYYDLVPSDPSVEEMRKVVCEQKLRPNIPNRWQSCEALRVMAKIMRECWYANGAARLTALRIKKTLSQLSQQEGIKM
The experiment in a line: TR-FRET enzymatic ALK kinase assay, ALK5.

A further assay addresses ALK6 (Homo sapiens, UniProt O00238). The experiment in a line: TR-FRET enzymatic ALK kinase assay, ALK6. For orientation: Time-resolved FRET reads energy transfer from a long-lived donor to a nearby acceptor.
For another assay, the target named is T2, ALK2 (Homo sapiens, UniProt Q04771).
T2 sequence (Q04771 21-509): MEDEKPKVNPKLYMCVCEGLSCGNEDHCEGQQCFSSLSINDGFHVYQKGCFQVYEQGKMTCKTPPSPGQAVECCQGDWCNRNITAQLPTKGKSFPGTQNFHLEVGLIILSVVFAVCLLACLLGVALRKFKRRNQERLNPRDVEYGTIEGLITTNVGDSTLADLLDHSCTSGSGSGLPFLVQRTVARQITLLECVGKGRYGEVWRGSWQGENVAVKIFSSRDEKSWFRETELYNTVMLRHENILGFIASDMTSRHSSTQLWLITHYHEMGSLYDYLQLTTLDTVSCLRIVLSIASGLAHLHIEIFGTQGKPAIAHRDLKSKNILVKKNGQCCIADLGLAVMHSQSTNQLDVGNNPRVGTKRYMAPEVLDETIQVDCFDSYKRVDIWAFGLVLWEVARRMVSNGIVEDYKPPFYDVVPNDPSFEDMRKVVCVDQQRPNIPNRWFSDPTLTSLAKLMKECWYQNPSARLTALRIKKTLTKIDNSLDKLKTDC
Kind of assay: TR-FRET enzymatic ALK kinase assay, ALK2.

Another assay addresses ALK3 (Homo sapiens, UniProt P36894). The experiment in a line: TR-FRET enzymatic ALK kinase assay, ALK3.
In another assay the target is ALK1 (Homo sapiens, UniProt P37023). The experiment in a line: TR-FRET enzymatic ALK kinase assay, ALK1.
A further assay addresses T3, ALK4 (Homo sapiens, UniProt P36896).
T3 sequence (P36896 24-505): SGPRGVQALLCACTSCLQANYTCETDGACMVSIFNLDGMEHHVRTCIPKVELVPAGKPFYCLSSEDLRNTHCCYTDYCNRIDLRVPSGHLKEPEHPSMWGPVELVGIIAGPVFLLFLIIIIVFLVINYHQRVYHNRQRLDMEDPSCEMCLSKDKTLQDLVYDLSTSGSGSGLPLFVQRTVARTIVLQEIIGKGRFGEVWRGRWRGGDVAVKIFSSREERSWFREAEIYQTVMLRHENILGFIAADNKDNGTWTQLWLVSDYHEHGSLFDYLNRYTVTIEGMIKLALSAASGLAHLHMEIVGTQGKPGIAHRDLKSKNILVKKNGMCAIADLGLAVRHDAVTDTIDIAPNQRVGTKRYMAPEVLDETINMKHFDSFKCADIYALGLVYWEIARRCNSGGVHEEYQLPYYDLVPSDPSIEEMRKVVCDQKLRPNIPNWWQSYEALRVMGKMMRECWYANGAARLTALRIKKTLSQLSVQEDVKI
Kind of assay: TR-FRET enzymatic ALK kinase assay, ALK4.

This passage reports IC50 results from patent US10513521B2, “Compositions and methods for inhibiting BMP” (The Brigham and Women's Hospital, Inc., priority 2014, dated 2019).

pIC50: −log10 of the molar value. Bounds are passed on as bounds.

ALK6, sequence (O00238 14-502): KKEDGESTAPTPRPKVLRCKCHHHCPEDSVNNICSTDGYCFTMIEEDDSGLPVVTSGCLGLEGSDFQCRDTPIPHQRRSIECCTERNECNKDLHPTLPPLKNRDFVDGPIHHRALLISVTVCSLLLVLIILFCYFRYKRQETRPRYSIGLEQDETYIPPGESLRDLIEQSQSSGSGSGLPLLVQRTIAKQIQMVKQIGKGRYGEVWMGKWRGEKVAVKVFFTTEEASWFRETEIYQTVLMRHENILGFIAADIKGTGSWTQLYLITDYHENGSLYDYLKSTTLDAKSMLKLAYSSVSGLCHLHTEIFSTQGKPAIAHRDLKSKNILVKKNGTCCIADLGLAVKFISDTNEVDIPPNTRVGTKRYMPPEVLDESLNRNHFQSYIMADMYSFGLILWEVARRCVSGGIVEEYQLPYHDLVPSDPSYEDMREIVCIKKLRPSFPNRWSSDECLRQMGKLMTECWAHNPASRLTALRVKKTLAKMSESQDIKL
ALK1, sequence (P37023 22-503): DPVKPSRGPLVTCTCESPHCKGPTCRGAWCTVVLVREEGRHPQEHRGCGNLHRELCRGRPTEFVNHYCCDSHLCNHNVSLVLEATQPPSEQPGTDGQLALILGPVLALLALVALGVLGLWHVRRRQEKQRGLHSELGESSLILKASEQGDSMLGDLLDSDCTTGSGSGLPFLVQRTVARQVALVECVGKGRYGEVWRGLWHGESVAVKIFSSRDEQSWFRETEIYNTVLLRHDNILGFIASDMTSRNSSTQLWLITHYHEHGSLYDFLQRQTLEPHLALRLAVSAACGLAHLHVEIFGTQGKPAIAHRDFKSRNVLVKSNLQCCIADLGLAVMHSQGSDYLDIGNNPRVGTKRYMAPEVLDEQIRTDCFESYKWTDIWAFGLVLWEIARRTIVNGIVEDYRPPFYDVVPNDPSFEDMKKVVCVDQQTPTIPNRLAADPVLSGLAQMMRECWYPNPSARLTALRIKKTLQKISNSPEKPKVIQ
ALK3, sequence (P36894 24-532): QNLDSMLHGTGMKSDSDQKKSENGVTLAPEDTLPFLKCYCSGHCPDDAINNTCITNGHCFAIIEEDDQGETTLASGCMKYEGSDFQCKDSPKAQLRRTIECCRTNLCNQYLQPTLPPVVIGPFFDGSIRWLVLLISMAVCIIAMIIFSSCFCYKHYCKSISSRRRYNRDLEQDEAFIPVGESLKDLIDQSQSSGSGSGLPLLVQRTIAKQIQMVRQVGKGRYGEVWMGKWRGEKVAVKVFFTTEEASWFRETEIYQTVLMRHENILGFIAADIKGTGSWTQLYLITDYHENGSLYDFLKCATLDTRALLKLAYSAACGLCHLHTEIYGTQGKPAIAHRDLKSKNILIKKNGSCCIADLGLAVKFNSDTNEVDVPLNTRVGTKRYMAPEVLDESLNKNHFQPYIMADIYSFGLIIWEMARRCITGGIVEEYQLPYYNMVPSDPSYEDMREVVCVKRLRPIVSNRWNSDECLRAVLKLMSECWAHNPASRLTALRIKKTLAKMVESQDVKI
Protocol for ALK1: (§1) Briefly, the ALKs enzymatic assay was initiated by dispense 2.5 μl enzyme in 1× kinase reaction buffer. The assay plate was then added with compounds followed by incubation at room temperature for 10 minutes. Then 2.5 μl/well substrate was added.
Protocol for ALK2: as §1
Protocol for ALK3: as §1
Protocol for ALK4: as §1
Protocol for ALK5: Six ALK kinase enzyme assays were developed for determination of compound activities on ALK1, ALK2, ALK3, ALK4, ALK5 and ALK6.
as §1
Protocol for ALK6: as §1

As to `CC(N)c1ccc(-c2cnc3c(-c4cccc([S+](C)(=O)[O-])c4)cnn3c2)cc1` (stereo not drawn) [Compound 187, 1-(4-(3-(3-(methylsulfonyl)phenyl)pyrazolo[1,5-a]pyrimidin-6-yl)phenyl)ethanamine], the negative logarithm of the IC50 (pIC50) is < 5.00 on ALK5; < 5.00 against ALK6; 7.48 on ALK2; < 5.00 on ALK3; 6.37 on ALK1; < 5.00 against ALK4.
For the compound `CC(N)c1ccc(-c2cnc3c(-c4cccc(C(C)O)c4)cnn3c2)cc1` (stereo not drawn) [Compound 188, 1-(3-(6-(4-(1-aminoethyl)phenyl)pyrazolo[1,5-a]pyrimidin-3-yl)phenyl)ethanol], the pIC50 against ALK5 is < 5.00; at ALK6, 5.09; at ALK2, 7.14; at ALK3, 5.33; against ALK1 it was 6.01; on ALK4, 5.39.
With `CS(=O)(=O)c1cccc(-c2cnn3cc(-c4ccc(C5(N)CC5)cc4)cnc23)c1` [Compound 190, 1-(4-(3-(3-(methylsulfonyl)phenyl)pyrazolo[1,5-a]pyrimidin-6-yl)phenyl)cyclopropanamine], the pIC50 is < 5.00 at ALK5; < 5.00 against ALK6; 7.36 against ALK2; 5.60 against ALK3; 6.34 on ALK1; < 5.00 on ALK4.
Regarding `CC(O)c1cccc(-c2cnn3cc(-c4ccc(C5(N)CC5)cc4)cnc23)c1` (stereo not drawn) [Compound 191, 1-(3-(6-(4-(1-aminocyclopropyl)phenyl)pyrazolo[1,5-a]pyrimidin-3-yl)phenyl)ethanol], the negative-log IC50 (pIC50) against ALK5 was < 5.00; against ALK6, < 5.00; against ALK2, 6.92; against ALK3, 5.27; at ALK1 it was 5.82; against ALK4, < 5.00.
Regarding `NC1(c2ccc(-c3cnc4c(-c5ccc(S(N)(=O)=O)c6ccccc56)cnn4c3)cc2)CC1` [Compound 192, 4-(6-(4-(1-aminocyclopropyl)phenyl)pyrazolo[1,5-a]pyrimidin-3-yl)naphthalene-1-sulfonamide], the negative-log IC50 (pIC50) against ALK5 was < 5.00; at ALK6, < 5.00; against ALK2, 7.30; against ALK3, 5.32; on ALK1, 6.19; at ALK4, < 5.00.
Turning to `C[C@@H]1CNC[C@H](C)N1c1ccc(-c2cnc3c(-c4cc(C(F)(F)F)cc(S(C)(=O)=O)c4)cnn3c2)cc1` [Compound 193, 6-(4-((2R,6S)-2,6-dimethylpiperazin-1-yl)phenyl)-3-(3-(methylsulfonyl)-5-(trifluoromethyl)phenyl)pyrazolo[1,5-a]pyrimidine], the negative logarithm of the IC50 (pIC50) was < 5.00 against ALK5; 5.92 against ALK6; 6.26 against ALK2; < 5.00 at ALK3; 5.12 on ALK1; < 5.00 at ALK4.
For `CS(=O)(=O)c1cccc(-c2cnn3cc(-c4ccc(OC5(CN6CCC(O)CC6)CC5)cc4)cnc23)c1` [Compound 194, 1-((1-(4-(3-(3-(methylsulfonyl)phenyl)pyrazolo[1,5-a]pyrimidin-6-yl)phenoxy)cyclopropyl)methyl)piperidin-4-ol], the pIC50 is < 5.00 at ALK5; < 5.00 against ALK6; 7.70 at ALK2; 6.06 against ALK3; 6.64 on ALK1; < 5.00 on ALK4.
In the case of `CS(=O)(=O)c1cccc(-c2cnn3cc(-c4ccc(OC5(CN6CCC(O)C6)CC5)cc4)cnc23)c1` (stereo not drawn) [Compound 195, 1-((1-(4-(3-(3-(methylsulfonyl)phenyl)pyrazolo[1,5-a]pyrimidin-6-yl)phenoxy)cyclopropyl)methyl)pyrrolidin-3-ol], the pIC50 at ALK5 is < 5.00; against ALK6, < 5.00; against ALK2, 7.66; at ALK3, 6.01; against ALK1, 6.57; at ALK4, < 5.00.
For the compound `C[C@H](O)c1cccc(-c2cnn3cc(-c4ccc(OC5(CN6C7CCC6CC7)CC5)cc4)cnc23)c1` [Compound 196, (S)-1-(3-(6-(4-(1-(7-azabicyclo[2.2.1]heptan-7-ylmethyl)cyclopropoxy)phenyl)pyrazolo[1,5-a]pyrimidin-3-yl)phenyl)ethanol], the negative-log IC50 (pIC50) was < 5.00 at ALK5; 5.05 at ALK6; 7.62 against ALK2; 5.60 against ALK3; 6.51 against ALK1; < 5.00 against ALK4.
Regarding `C[C@H](O)c1cccc(-c2cnn3cc(-c4ccc(OC5(CN6CCC7(CC6)CNC7)CC5)cc4)cnc23)c1` [Compound 197, (S)-1-(3-(6-(4-(1-(2,7-diazaspiro[3.5]nonan-7-ylmethyl)cyclopropoxy)phenyl)pyrazolo[1,5-a]pyrimidin-3-yl)phenyl)ethanol], the pIC50 against ALK5 is < 5.00; against ALK6, < 5.00; against ALK2, 7.28; on ALK3 it was 5.70; against ALK1, 6.30; against ALK4, < 5.00.
Regarding `C[C@H](O)c1cccc(-c2cnn3cc(-c4ccc(OC5(CN6CCCC6)CC5)cc4)cnc23)c1` [Compound 198, (S)-1-(3-(6-(4-(1-(pyrrolidin-1-ylmethyl)cyclopropoxy)phenyl)pyrazolo[1,5-a]pyrimidin-3-yl)phenyl)ethanol], the negative logarithm of the IC50 (pIC50) was < 5.00 at ALK5; < 5.00 at ALK6; 7.52 against ALK2; 5.92 against ALK3; 6.15 at ALK1; < 5.00 against ALK4.
For the compound `C[C@H](O)c1cccc(-c2cnn3cc(-c4ccc(OC5(CN6CCCCC6)CC5)cc4)cnc23)c1` [Compound 199, (S)-1-(3-(6-(4-(1-(piperidin-1-ylmethyl)cyclopropoxy)phenyl)pyrazolo[1,5-a]pyrimidin-3-yl)phenyl)ethanol], the pIC50 is < 5.00 against ALK5; 5.01 against ALK6; 7.60 against ALK2; 6.21 against ALK3; 6.21 against ALK1; < 5.00 against ALK4.
In the case of `C[C@H](O)c1cccc(-c2cnn3cc(-c4ccc(OCCN5CCCC5)cc4)cnc23)c1` [Compound 200, (S)-1-(3-(6-(4-(2-(pyrrolidin-1-yl)ethoxy)phenyl)pyrazolo[1,5-a]pyrimidin-3-yl)phenyl)ethanol], the pIC50 was < 5.00 on ALK5; 5.64 against ALK6; 7.17 at ALK2; 5.92 against ALK3; 5.89 on ALK1; < 5.00 on ALK4.
On to `C[C@H](O)c1cccc(-c2cnn3cc(-c4ccc(OCCN5CCCCC5)cc4)cnc23)c1` [Compound 201, (S)-1-(3-(6-(4-(2-(piperidin-1-yl)ethoxy)phenyl)pyrazolo[1,5-a]pyrimidin-3-yl)phenyl)ethanol], for which the negative-log IC50 (pIC50) against ALK5 was < 5.00; at ALK6, < 5.00; on ALK2, 7.37; on ALK3, 6.00; against ALK1, 6.00; against ALK4 it was < 5.00.
As to `NS(=O)(=O)c1ccc(-c2cnn3cc(-c4ccc(OC(F)(F)CN5CCCCC5)cc4)cnc23)c2ccccc12` [Compound 206, 4-(6-(4-(1,1-difluoro-2-(piperidin-1-yl)ethoxy)phenyl)pyrazolo[1,5-a]pyrimidin-3-yl)naphthalene-1-sulfonamide], the pIC50 was < 5.00 on ALK5; < 5.00 against ALK6; 5.92 on ALK2; < 5.00 against ALK3; 5.34 at ALK1; < 5.00 on ALK4.

What is called pIC50 is the negative decadic logarithm of the IC50, by convention in mol/L. The low end stands for a high IC50, the high end for a low IC50.
